Article PMC8593400, “Effective Search of Triterpenes with Anti-HSV-1 Activity Using a Classification Model by Logistic Regression” (Frontiers in Chemistry, 2021)
“Also recorded” adds a separate entry of the source. Like-named read-outs stand apart in the source and are kept apart here. Blank lines part the entries; values can stand above or below the compound they belong to.

Legend:
[1] = cytotoxicity, CellTiter-Glo 3D cell viability assay; assay type: cell-based; conditions: African green monkey
Procedure: (§1) All test compounds were evaluated their cytotoxicity by using CellTiter-Glo 3D® cell viability assay ([Matsumoto et al., 2020]). Briefly, Vero cells (3.0 × 10^3 cells/ well) were seeded in 96-well plates (96F Nunclon TM Delta Microwell SI; Thermo Fisher Scientific), and precultured for 24 h. The cells were treated with test compounds (10 μL/well). After 48 h, CellTiter-Glo® 3D Reagent (Promega, Madison, WI, United States) was added at 100 μL per well, mixed by shaking for 5 min at RT, and incubated for 25 min at 37°C. The cell-containing media were transferred to a 96-well white plate (96F Nunclon TM Delta White Microwell SI; Thermo Fisher Scientific). Luminescence was measured with a luminometer (FLUOstar OPTIMA®; BMG Labtech, Ortenberg, Germany).

[2] = tested on: HSV-1 (HF strain: acyclovir-sensitive); test: plaque reduction assay on Vero cells (anti-HSV-1 activity); assay type: cell-based, herpes simplex virus type 1; conditions: for IC50: 50% inhibitory concentration, plaque reduction
Procedure: Antiviral effects against HSV-1 (HF strain: acyclovir-sensitive) were evaluated using a plaque reduction assay with some modifications as previously reported ([Ogawa et al., 2018]). The activity of all test compounds was measured at 25 μM, corresponding to the threshold of the prediction model. […] The protocol was performed follows.
Vero cells were maintained in Dulbecco’s Modified Eagle Medium (DMEM) supplemented with 10% fetal calf serum (FBS). Vero cells (1.7–2.8 × 10^5 cells/well) were seeded onto a 12-well tissue culture plate and precultured for 1–2 days. The cells were inoculated with 100 plaque-forming units (PFU) of HSV-1 in 0.1 ml of FBS-free DMEM. After 30 min, the inoculum was removed. HSV-infected cells were maintained in DMEM containing 10% FBS, methylcellulose, and serially diluted test compounds. After 48 h of incubation at 37°C, the medium was removed. The cell sheets were stained with 1% crystal violet dissolved in 50% methanol, and the number of plaques larger than 0.4 mm was counted. HSV-1 replication causes cytopathic effects, resulting in plaque formation. The number and size of plaques reflected virus yields. To examine the effect of virus yield reduction, the total plaque number in cells untreated with the compound was defined as 100% and set as the control group. The significant difference of test compounds at 25 μM from the control group was calculated using the Student’s t-test. The significant difference of each concentration of 10–13 and 16 from the control group was calculated by Dunnett’s test. Probability (p) values less than 0.05 were considered to be significant (^* p < 0.05, ^** p < 0.01).

Vero cells = test: cytotoxicity, CellTiter-Glo 3D cell viability assay; assay type: cell-based
Procedure: as §1

HSV-1 = conditions: cited from earlier work; for anti-HSV-1 activity previously reported: ref Rattanathongkom et al., 2009
[3] = parameters: method as in Rattanathongkom et al., 2009; conditions: ref Rattanathongkom et al., 2009; cited from earlier work
[4] = Human alphaherpesvirus 1, Vero, 48 h, 25 μM, plaque number vs untreated control, Vero cells, 48 h, read-out: Inhibitory rate (%) 25 μM
[5] = Human alphaherpesvirus 1, Vero, Vero cells, read-out: IC50
[6] = Human alphaherpesvirus 1, Vero, 48 h, 5 μM, plaque number vs untreated control, Vero cells, 48 h, read-out: Inhibitory rate (%) 5 μM
[7] = Human alphaherpesvirus 1, Vero, 48 h, 10 μM, plaque number vs untreated control, Vero cells, 48 h, read-out: Inhibitory rate (%) 10 μM
[8] = Human alphaherpesvirus 1, Vero, 48 h, read-out: Inhibitory rate (%) 25 μM, 25 μM, plaque number vs untreated control, Vero cells, 48 h

Compound: C[C@@H]1CC[C@]2(C(=O)O)CC[C@]3(C)C(=CC[C@@H]4[C@@]5(C)C[C@@H](O)[C@@H](O)C(C)(C)[C@@H]5CC[C@]43C)[C@@H]2[C@]1(C)O [Compound 1, Euscaphic acid]
viability at 48 h, 25 µM ([1]; Cell viability (%)): 117 ± 5.2%
inhibition at 25 µM [2, 4]: 0%

Compound: CC1(C)CC[C@]2(C(=O)O)CC[C@]3(C)C(=CCC4[C@@]5(C)C[C@H](O)[C@H](O)[C@@](C)(CO)C5CC[C@]43C)[C@@H]2C1 (some centres unmarked) [Compound 2, bayogenin]
viability at 48 h, 25 µM ([1]; Cell viability (%)): 117 ± 6.99%

Compound: C=C1CCC2(C(=O)O)C(O)CC3(C)C(=CCC4C5(C)CCC(OC6OC(C(=O)O)C(O)C(O)C6O)C(C)(C)C5CCC43C)C2C1 (centres unmarked) [Compound 4, Pfaffiaglycoside B]
viability at 48 h, 25 µM ([1]; Cell viability (%)): 108 ± 4.17%
inhibition at 25 µM [2, 4]: 7.64 ± 10.7%

Compound: CC1(C)C(=O)CC[C@@]2(C)C1CC[C@]1(C)C2CC=C2[C@@H]3C[C@](C)(C(=O)O)CC[C@]3(C(=O)O)CC[C@]21C (stereo partly drawn) [Compound 5, (20α)-3-oxoolean-12-ene-28,29-dioic acid]
viability at 48 h, 25 µM ([1]; Cell viability (%)): 122 ± 5.6%

Compound: C=C1CC[C@]2(C(=O)O)[C@@H](O)C[C@]3(C)C(=CC[C@@H]4[C@@]5(C)CC[C@H](O)C(C)(C)[C@@H]5CC[C@]43C)[C@@H]2C1 [Compound 6, pfaffianol A]
viability at 48 h, 25 µM ([1]; Cell viability (%)): 122 ± 6.84%
inhibition at 25 µM [2, 4]: 12.4 ± 16.9%

Compound: CC(C)[C@@H](O)C[C@@H](O)[C@](C)(O)[C@H]1CC[C@@]2(O)C3=CC(=O)[C@@H]4C[C@@H](O)[C@@H](O)C[C@]4(C)[C@H]3CC[C@]12C [Compound 7, pterosterone]
viability at 48 h, 25 µM ([1]; Cell viability (%)): 115 ± 3.95%

Compound: CC(C)(O)CCC[C@](C)(O)[C@H]1CC[C@@]2(O)C3=CC(=O)[C@@H]4C[C@@H](O)[C@@H](O)C[C@]4(C)C3CC[C@]12C (some centres unmarked) [Compound 8, taxisterone]
viability at 48 h, 25 µM ([1]; Cell viability (%)): 122 ± 4.78%

Compound: C[C@]12C[C@H](O)[C@H](O)C[C@H]1C(=O)C=C1[C@@H]2CC[C@]2(C)[C@@H](O)CC[C@@]12O [Compound 9, 2β,3β,14α,17β-tetrahydroxy-5β-androst-7-en-6-one]
viability at 48 h, 25 µM ([1]; Cell viability (%)): 106 ± 3.86%

IC50 ([2]; Vero cells, read-out: IC50): 14.1 µM
IC50 [2, 5]: < 25 µM
Compound: CC1(C)CCC2(C(=O)O)CCC3(C)C(=CCC4C5(C)CCC(OC6OC(C(=O)O)C(O)C(O)C6O)C(C)(C)C5CCC43C)C2C1 [Compound 10, oleanolic acid 3-O-β-D-glucuronopyranoside]
viability at 48 h, 10 µM ([1]; Cell viability (%)): 104 ± 9.28%
viability at 48 h, 25 µM ([1]; Cell viability (%)): 14.6%
viability at 48 h, 50 µM ([1]; Cell viability (%)): 1.47 ± 0.54%
cytotoxicity in words (Vero cells): showed cytotoxicity
Cell viability (%) (Vero cells; African green monkey, 48 h, 10 µM): 104.0 ± 9.28%
anti-HSV-1 activity previously reported (HSV-1): did not show any anti-HSV-1 activity
cytotoxicity previously reported [3]: cytotoxicity
anti-HSV-1 activity in words (significance vs control) ([2]; 25 μM): significant activity
inhibition at 5 µM [2, 6]: 5.85 ± 8.4%
inhibition at 10 µM [2, 7]: 27.5 ± 8.92%
inhibition at 25 µM [2, 4]: 83.3 ± 41.1%

Compound: CC1(C)CC[C@]2(C(=O)O[C@@H]3O[C@H](CO)[C@@H](O)[C@H](O)[C@H]3O)CC[C@]3(C)C(=CC[C@@H]4[C@@]5(C)CC[C@H](O[C@@H]6O[C@H](C(=O)O)[C@@H](O)[C@H](O)[C@H]6O)C(C)(C)[C@@H]5CC[C@]43C)[C@@H]2C1 [Compound 11, chikusetsusaponin IVa]
viability at 48 h, 25 µM ([1]; Cell viability (%)): 112 ± 4.45%
viability at 48 h, 50 µM ([1]; Cell viability (%)): 113 ± 6.08%
anti-HSV-1 activity previously reported (HSV-1): exhibit anti-HSV-1 activity
anti-HSV-1 activity in words (significance vs control) ([2]; 25 μM): significant activity
Inhibitory rate (%) 25 μM ([2]; 25 μM, plaque number vs untreated control, Vero cells, 48 h, 25 µM): 51.82 ± 9.61^** %
IC50 ([2]; Vero cells): 13.1 µM
IC50 ([2]; Human alphaherpesvirus 1, Vero, Vero cells): < 25 µM
inhibition at 5 µM ([2]; Human alphaherpesvirus 1, Vero, 48 h, read-out: Inhibitory rate (%) 5 μM, 5 μM, plaque number vs untreated control, Vero cells, 48 h): 14.6 ± 15%
inhibition at 10 µM ([2]; Human alphaherpesvirus 1, Vero, 48 h, read-out: Inhibitory rate (%) 10 μM, 10 μM, plaque number vs untreated control, Vero cells, 48 h): 36.8 ± 17.4%
inhibition at 25 µM [2, 8]: 51.8 ± 9.61%

Compound: C=C1CCC2(C(=O)OC3OC(CO)C(O)C(O)C3O)CCC3(C)C(=CCC4C5(C)CCC(OC6OC(C(=O)O)C(O)C(O)C6O)C(C)(C)C5CCC43C)C2C1 (centres unmarked) [Compound 12, boussingoside A2]
viability at 48 h, 25 µM ([1]; Cell viability (%)): 112 ± 6.79%
viability at 48 h, 50 µM ([1]; Cell viability (%)): 111 ± 9.73%
cytotoxicity in words (Vero cells): no cytotoxicity
anti-HSV-1 activity in words (significance vs control) ([2]; 25 μM): significant activity; also recorded: moderate anti-HSV-1 activity
inhibition at 5 µM [2, 6]: 4.42 ± 8.12%
inhibition at 10 µM [2, 7]: 2.77 ± 11.6%
inhibition at 25 µM [2, 4]: 24.7 ± 10.2%

Compound: CC(C)(O)CCC(=O)[C@](C)(O)[C@H]1CC[C@@]2(O)C3=CC(=O)[C@@H]4C[C@@H](O)[C@@H](O)C[C@]4(C)C3CC[C@]12C (some centres unmarked) [Compound 15, 22-oxo-20-hydroxyecdysone]
viability at 48 h, 25 µM ([1]; Cell viability (%)): 115 ± 3.93%

Compound: CC(C)C(C)CCC(C)C1CCC2C1(C)CCC1C23C=CC2(CC(O)CCC12C)OO3 (stereo not drawn) [Compound 16, 5α,8α-epidioxyergosta-3β-ol]
viability at 48 h, 25 µM ([1]; Cell viability (%)): 130 ± 6.83%
viability at 48 h, 50 µM ([1]; Cell viability (%)): 2.96 ± 1.77%
anti-HSV-1 activity in words (significance vs control) ([2]; 25 μM): significant activity
inhibition at 5 µM [2, 6]: -2.49 ± 8.74%
inhibition at 10 µM [2, 7]: 0%
inhibition at 25 µM [2, 4]: 27.2 ± 5.52%

Compound: C[C@@H](C1CC[C@@]2(C)C3=C(CC[C@]12C)[C@@]1(C)CC[C@H](O)C(C)(C)C1CC3)[C@H](O)/C=C/C(C)(C)OO (stereo partly drawn) [Compound 17, 3β,22R-Dihydroxylanosta-8,23E-diene-25-peroxide]
viability at 48 h, 25 µM ([1]; Cell viability (%)): 16.8%

Compound: CC(C)=CCC[C@@H](C=O)[C@H]1CC[C@@]2(C)C3=C(CC[C@]12C)[C@@]1(C)CC[C@H](O)C(C)(C)[C@@H]1CC3 [Compound 18, 3β-hydroxylanosta-8,24-dien-21-al]
viability at 48 h, 25 µM ([1]; Cell viability (%)): 113 ± 4.93%
inhibition at 25 µM [2, 4]: 1.24 ± 3.8%

Compound: CC(C)=CCC[C@@H](C)[C@H]1CC[C@@]2(C)C3=C(CC[C@]12C)[C@@]1(C)CC[C@H](O)C(C)(C)[C@@H]1CC3 [Compound 19, lanosterol]
viability at 48 h, 25 µM ([1]; Vero cells, 25 μM, Vero cells, 48 h, read-out: Cell viability (%)): 101 ± 4.72%
inhibition at 25 µM [2, 8]: 20.4 ± 8.49%

Compound: C[C@H](C/C=C/C(C)(C)OO)C1CC[C@@]2(C)C3=C(CC[C@]12C)[C@@]1(C)CC[C@H](O)C(C)(C)C1CC3 (stereo partly drawn) [Compound 20, (3β,23E)-25-hydroperoxylanosta-8,23-dien-3-ol]
inhibition at 25 µM [2, 4]: 19 ± 9.25%

IC50 [2, 5]: 3.08 µM
Compound: Nc1nc2c(ncn2COCCO)c(=O)[nH]1 [acyclovir, reference compound]
viability at 48 h, 10 µM ([1]; Vero cells, 10 μM, Vero cells, 48 h, read-out: Cell viability (%)): 103 ± 13.8%
inhibition at 2.5 µM ([2]; Human alphaherpesvirus 1, Vero, 48 h, 2.5 μM, plaque number vs untreated control, Vero cells, 48 h, read-out: Inhibitory rate (%) 2.5 μM): 57.5 ± 11.9%
inhibition at 10 µM [2, 7]: 96 ± 11.8%

Compound: CC1(C)CC[C@]2(C(=O)O)CC[C@]3(C)C(=CC[C@@H]4[C@@]5(C)CC[C@H](O)C(C)(C)[C@@H]5CC[C@]43C)[C@@H]2C1 [oleanolic acid, reference compound]
inhibition at 5 µM [2, 6]: 9.02 ± 4.22%
inhibition at 25 µM [2, 4]: 21.4 ± 11.6%

Compound: cucurbitacin B [reference compound]
anti-HSV-1 activity (HSV-1; ref Hassan et al., 2017): strong anti-HSV-1 activity
selectivity index (HSV-1; ref Hassan et al., 2017): high
